Assay [1] has as its target T1, Type-2 angiotensin II receptor (Homo sapiens, UniProt P50052). Further: in other assays of this panel Not Active means under 50% inhibition at 10 µM.
T1 sequence (P50052 whole entry): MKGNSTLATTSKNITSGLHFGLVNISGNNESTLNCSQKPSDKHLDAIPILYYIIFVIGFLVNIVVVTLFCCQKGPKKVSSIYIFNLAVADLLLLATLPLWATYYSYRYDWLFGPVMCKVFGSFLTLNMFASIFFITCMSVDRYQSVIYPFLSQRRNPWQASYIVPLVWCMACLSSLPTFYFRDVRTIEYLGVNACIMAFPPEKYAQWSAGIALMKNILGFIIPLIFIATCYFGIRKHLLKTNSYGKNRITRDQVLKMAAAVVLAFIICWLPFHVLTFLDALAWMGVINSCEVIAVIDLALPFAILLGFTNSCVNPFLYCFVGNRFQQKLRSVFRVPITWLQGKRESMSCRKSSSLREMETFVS
Format: cell-based. The conditions noted are these: cho-k1.

A short description of assay [2]: DRUGMATRIX: beta-Lactamase enzyme inhibition (substrate: Nitrocefin). Set-up: species or system Bacillus cereus. The conditions noted are these: Not Active = under 50% inhibition at 10 µM.
For a further assay, the target named is Carbonic anhydrase 2 (Homo sapiens, UniProt P00918). Kind of assay: DRUGMATRIX: Carbonic Anhydrase II enzyme inhibition (substrate: 4-Nitrophenyl acetate (4-NPA)). It is filed as tissue-based, Erythrocyte. The conditions noted are these: erythrocyte; Not Active = under 50% inhibition at 10 µM.
Assay [3] has as its target Sodium-dependent dopamine transporter (Homo sapiens, UniProt Q01959). Nature of the assay: DRUGMATRIX: Dopamine Transporter radioligand binding (ligand: [125I] RTI-55). It is filed as cell membranes, CHO-K1, Membrane. The conditions noted are these: Not Active = under 50% inhibition at 10 µM.
For assay [4], the target named is T2, Alpha-1A adrenergic receptor (Rattus norvegicus, UniProt P43140).
T2 sequence (P43140 whole entry): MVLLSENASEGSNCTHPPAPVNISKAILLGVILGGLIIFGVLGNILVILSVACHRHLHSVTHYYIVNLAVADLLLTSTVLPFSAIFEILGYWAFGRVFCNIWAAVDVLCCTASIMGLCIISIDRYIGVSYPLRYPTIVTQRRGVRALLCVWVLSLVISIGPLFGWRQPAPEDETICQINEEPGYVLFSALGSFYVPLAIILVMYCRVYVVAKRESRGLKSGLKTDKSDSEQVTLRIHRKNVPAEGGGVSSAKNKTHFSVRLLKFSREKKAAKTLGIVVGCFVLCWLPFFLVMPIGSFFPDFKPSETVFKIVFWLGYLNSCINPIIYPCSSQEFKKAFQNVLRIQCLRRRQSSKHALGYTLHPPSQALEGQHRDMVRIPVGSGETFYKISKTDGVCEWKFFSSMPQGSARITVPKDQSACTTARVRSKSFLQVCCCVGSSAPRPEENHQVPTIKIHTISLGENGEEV
Kind of assay: DRUGMATRIX: Alpha-1A adrenergic receptor radioligand binding (ligand: prazosin). It is filed as cell membranes, Wistar, Submaxillary gland, Membrane. Particulars: Not Active = under 50% inhibition at 10 µM; for Ki: read-out: Ki.

Assay [5] deals with T3, Alpha-1B adrenergic receptor (Rattus norvegicus, UniProt P15823).
T3 sequence (P15823 whole entry): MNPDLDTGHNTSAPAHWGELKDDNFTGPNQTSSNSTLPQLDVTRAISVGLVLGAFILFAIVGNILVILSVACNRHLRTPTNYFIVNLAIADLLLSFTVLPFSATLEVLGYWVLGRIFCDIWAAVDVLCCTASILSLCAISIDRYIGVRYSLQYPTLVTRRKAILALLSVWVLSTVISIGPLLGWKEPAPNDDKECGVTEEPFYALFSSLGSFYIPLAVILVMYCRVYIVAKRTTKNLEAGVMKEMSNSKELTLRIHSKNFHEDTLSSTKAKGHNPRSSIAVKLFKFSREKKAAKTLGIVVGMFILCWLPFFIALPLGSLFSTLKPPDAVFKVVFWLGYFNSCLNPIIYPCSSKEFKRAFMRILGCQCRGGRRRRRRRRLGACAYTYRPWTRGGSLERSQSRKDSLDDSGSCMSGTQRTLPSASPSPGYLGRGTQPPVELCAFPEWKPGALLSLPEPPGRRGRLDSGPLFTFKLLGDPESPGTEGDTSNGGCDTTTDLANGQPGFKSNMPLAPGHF
Kind of assay: DRUGMATRIX: Alpha-1B adrenergic receptor radioligand binding (ligand: prazosin). It is filed as cell membranes, Wistar, Liver, Membrane. The conditions noted are these: Not Active = under 50% inhibition at 10 µM; for Ki: read-out: Ki.

A short description of assay [6]: DRUGMATRIX: Serotonin (5-Hydroxytryptamine) 5-HT3 radioligand binding (ligand: [3H] GR-65630). Particulars: hek293; Not Active = under 50% inhibition at 10 µM. Format: cell membranes, Membrane.
The target of a further assay is T4, Cathepsin G (Homo sapiens, UniProt P08311).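 Further: inhibition of Cathepsin G enzyme activity, tested on an AMC-conjugated peptide substrate; in other assays of this panel Not Active means under 50% inhibition at 10 µM.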
T4 sequence (P08311 whole entry): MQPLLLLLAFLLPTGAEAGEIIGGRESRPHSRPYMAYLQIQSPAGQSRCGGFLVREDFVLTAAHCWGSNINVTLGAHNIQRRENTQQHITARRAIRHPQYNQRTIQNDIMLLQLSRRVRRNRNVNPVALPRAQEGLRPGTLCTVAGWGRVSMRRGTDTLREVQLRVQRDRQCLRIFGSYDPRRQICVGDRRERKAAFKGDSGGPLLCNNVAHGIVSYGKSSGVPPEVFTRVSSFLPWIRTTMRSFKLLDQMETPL
It is filed as tissue-based. The conditions noted are these: neutrophil.

Assay [7] deals with T5, Neuropeptide Y receptor type 1 (Homo sapiens, UniProt P25929).
T5 sequence (P25929 whole entry): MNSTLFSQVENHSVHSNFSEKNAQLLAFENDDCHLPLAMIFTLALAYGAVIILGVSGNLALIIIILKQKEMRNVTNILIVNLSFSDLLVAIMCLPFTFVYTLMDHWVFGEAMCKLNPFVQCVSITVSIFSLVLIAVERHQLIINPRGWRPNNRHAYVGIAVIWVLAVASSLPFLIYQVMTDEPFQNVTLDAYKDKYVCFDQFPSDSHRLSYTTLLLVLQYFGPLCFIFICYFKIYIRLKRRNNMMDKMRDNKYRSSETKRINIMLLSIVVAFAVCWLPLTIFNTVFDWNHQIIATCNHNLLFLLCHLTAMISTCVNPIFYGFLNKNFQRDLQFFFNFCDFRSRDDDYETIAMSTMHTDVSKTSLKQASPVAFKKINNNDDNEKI
Format: cell membranes, Membrane. The conditions noted are these: sk-n-mc.

The values below come from ChEMBL document CHEMBL1909046, “DrugMatrix in vitro pharmacology data”.

Sequence of Sodium-dependent dopamine transporter (Q01959 whole entry): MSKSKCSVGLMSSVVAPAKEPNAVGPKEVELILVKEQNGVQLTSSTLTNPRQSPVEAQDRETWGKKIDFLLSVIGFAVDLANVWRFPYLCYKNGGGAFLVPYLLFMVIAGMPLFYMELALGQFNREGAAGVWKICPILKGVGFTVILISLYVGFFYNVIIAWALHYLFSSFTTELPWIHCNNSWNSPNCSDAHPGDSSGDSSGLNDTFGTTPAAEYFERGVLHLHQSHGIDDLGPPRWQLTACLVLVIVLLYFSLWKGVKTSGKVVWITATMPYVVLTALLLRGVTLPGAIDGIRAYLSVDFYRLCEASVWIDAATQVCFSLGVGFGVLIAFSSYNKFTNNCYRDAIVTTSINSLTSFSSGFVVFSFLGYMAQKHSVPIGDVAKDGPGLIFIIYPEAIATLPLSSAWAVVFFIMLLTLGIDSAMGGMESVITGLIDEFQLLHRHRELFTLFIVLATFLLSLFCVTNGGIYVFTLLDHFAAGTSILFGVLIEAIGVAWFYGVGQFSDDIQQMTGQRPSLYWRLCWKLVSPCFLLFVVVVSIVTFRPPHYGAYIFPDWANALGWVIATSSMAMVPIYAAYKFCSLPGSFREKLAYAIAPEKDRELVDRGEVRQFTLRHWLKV

By IC50 is commonly meant the midpoint of a concentration-inhibition curve. The Ki is the dissociation constant of the complex between target and ligand, obtained from inhibition or displacement. For `CC1=C(CC(=O)O)c2cc(F)ccc2/C1=C\c1ccc([S+](C)[O-])cc1` (configuration not stated), the IC50 entry (in assay [1]; in assay [2]; against Carbonic anhydrase 2; in assay [3] (cho-k1); in assay [4]; in assay [5]) was “Not Active” in each case. Also, the IC50 result (in assay [6]; at Cathepsin G; in assay [7]) was “Not Active” in each case. The Ki result in [2] and in assay [6] was “Not Active” each time.
For the compound `N[C@H](CSC(=S)NCc1ccccc1)C(=O)O`, the IC50 result (in assay [1]; in assay [2]; on Carbonic anhydrase 2; in [3] (cho-k1); in [4]; in assay [5]) was “Not Active” in each case. For the same compound, the IC50 entry (in [6]; against Cathepsin G; in assay [7]) was “Not Active” each time. Further, the Ki entry in assay [2] and in assay [6] was “Not Active” throughout.
In the case of `CC(=O)N[C@@H]1[C@H](Oc2c3cc4cc2Oc2ccc(cc2Cl)[C@@H](O[C@@H]2O[C@@H](CO)[C@@H](O)[C@H](O)[C@@H]2NC(C)=O)[C@@H]2NC(=O)[C@H](NC(=O)[C@@H]4NC(=O)[C@H]4NC(=O)[C@@H](Cc5ccc(c(Cl)c5)O3)NC(=O)[C@H](N)c3ccc(O)c(c3)Oc3cc(O)cc4c3)c3ccc(O)c(c3)-c3c(O[C@H]4O[C@H](CO)[C@@H](O)[C@@H](O)[C@@H]4O)cc(O)cc3[C@@H](C(=O)O)NC2=O)O[C@@H](CO)[C@@H](O)[C@@H]1O`, the IC50 entry (in [1]; in assay [2]; against Carbonic anhydrase 2; in assay [3] (cho-k1); in assay [4]; in assay [5]) was “Not Active” each time. The 50% inhibitory concentration (IC50) entry (in assay [6]; on Cathepsin G; in assay [7]) was “Not Active” throughout. The Ki result in assay [2] and in [6] was “Not Active” each time.
Turning to `Clc1ccc2c(c1)C(N1CCNCC1)=Nc1ccccc1O2` [AMOXAPINE], the IC50 result in assay [1] is “Not Active”; at Carbonic anhydrase 2, “Not Active”; in assay [3] (cho-k1), “Not Active”; in assay [4] (read-out: IC50), 0.357 µM; against Cathepsin G, “Not Active”; in assay [7], “Not Active”. For the same compound, the Ki in [4] is 0.144 µM.
With `COc1cc2c(c(OC)c1OC)-c1ccc(OC)c(=O)cc1[C@@H](NC(C)=O)CC2` [COLCHICINE], the IC50 entry (in assay [1]; at Carbonic anhydrase 2; in assay [3] (cho-k1); in assay [4]; at Cathepsin G; in assay [7]) was “Not Active” each time.
For `CN1CCC(=C2c3ccccc3C=Cc3ccccc32)CC1` [CYPROHEPTADINE], the IC50 result in assay [1] is “Not Active”; against Carbonic anhydrase 2 it was “Not Active”; in assay [3] (cho-k1) it was “Not Active”; in assay [4] (read-out: IC50), 0.241 µM; against Cathepsin G, “Not Active”; in [7], “Not Active”. Moreover, the Ki in [4] was 0.098 µM.
In the case of `CC/C(=C(/CC)c1ccc(O)cc1)c1ccc(O)cc1` [DIETHYLSTILBESTROL], the IC50 result in assay [1] is “Not Active”; at Carbonic anhydrase 2, “Not Active”; in assay [4] (read-out: IC50) it was 19.5 µM; on Cathepsin G it was “Not Active”; in [7] it was “Not Active”. Besides, the Ki in assay [4] amounted to 7.89 µM.
Take `CC(=O)N1CCN(c2ccc(OCC3COC(Cn4ccnc4)(c4ccc(Cl)cc4Cl)O3)cc2)CC1` (configuration not stated) [KETOCONAZOLE]: the IC50 entry in [1] is “Not Active”; in [2], “Not Active”; at Carbonic anhydrase 2, “Not Active”; in assay [3] (read-out: IC50), 23.5 µM; in [4] (read-out: IC50) it was 35.7 µM; in assay [5] (read-out: IC50), 22.9 µM. The IC50 entry (in [6]; against Cathepsin G; in assay [7]) was “Not Active” throughout. For the same compound, the Ki entry in assay [2] was “Not Active”; in [3] (read-out: Ki), 18.7 µM; in [4], 14.5 µM; in assay [5], 12.7 µM; in assay [6] it was “Not Active”.
In the case of `C=CCN1CC[C@]23c4c5ccc(O)c4O[C@H]2C(=O)CC[C@@]3(O)[C@H]1C5` [NALOXONE], the IC50 result (in assay [1]; on Carbonic anhydrase 2; in assay [3] (cho-k1); in assay [4]; at Cathepsin G; in assay [7]) was “Not Active” in each case.
On to `CC(C)NCC(O)COc1cccc2ccccc12` (configuration not stated) [PROPRANOLOL], for which the IC50 entry (in [1]; against Carbonic anhydrase 2; in assay [4]; at Cathepsin G; in [7]) was “Not Active” in each case.
On to `O=C(c1ccc(OCCN2CCCCC2)cc1)c1c(-c2ccc(O)cc2)sc2cc(O)ccc12` [RALOXIFENE], for which the IC50 entry in [1] is “Not Active”; in assay [2], “Not Active”; at Carbonic anhydrase 2 it was “Not Active”; in [4] (read-out: IC50) it was 2.2 µM; in assay [5] (read-out: IC50) it was 2.69 µM; in assay [6] it was “Not Active”. In addition, the IC50 entry (against Cathepsin G; in assay [7]) was “Not Active” throughout. Further, the Ki result in [2] was “Not Active”; in [4], 0.892 µM; in assay [5], 1.49 µM; in assay [6] it was “Not Active”.
In the case of `CC(C)(C)c1ccc(C(O)CCCN2CCC(C(O)(c3ccccc3)c3ccccc3)CC2)cc1` (configuration not stated) [TERFENADINE], the IC50 entry in assay [1] was “Not Active”; in assay [2], “Not Active”; at Carbonic anhydrase 2, “Not Active”; in assay [4], “Not Active”; in assay [5] (read-out: IC50), 3.34 µM; in [6], “Not Active”. Also, the half-inhibitory concentration (IC50) entry (against Cathepsin G; in [7]) was “Not Active” in each case. Moreover, the inhibition constant Ki result is “Not Active” in assay [2], 1.85 µM in assay [5] and “Not Active” in assay [6].
For `Cc1onc(-c2ccccc2)c1-c1ccc(S(N)(=O)=O)cc1` [VALDECOXIB], the IC50 result in assay [1], in assay [2], in assay [3] (cho-k1), in assay [4], in [5] and in [6] was “Not Active” in each case. Also, the IC50 result (against Cathepsin G; in assay [7]) was “Not Active” in each case. In addition, the inhibition constant Ki entry in assay [2] and in [6] was “Not Active” each time.
